Test results from EP4817617A1, “LIPOSOME AGENT, NKT CELL ACTIVATOR, PHARMACEUTICAL COMPOSITION, AND USES OF THESE” (Ambicion Co., Ltd., priority 2023, dated 2025).

Test system: triple-negative breast cancer 4T1 cells
Test: Antitumor effect of α-GalCer liposome against breast cancer by repetitive subcutaneous administration
Format: in vivo, BALB/c mouse
Details: s.c. left flank, 4 times every 5 days, α-GalCer 15 µg; n=2 shown
Procedure: The following liposome samples prepared using PBS in Example 1 were used. • (1-2) 50% α-GalCer / negatively charged PEG terminal -OH liposome, 100 nm • (1-11) 0% control / negatively charged PEG terminal -OH liposome, 100 nm The liposome samples were adjusted to a PEGylated liposome concentration of 1 mg/mL (in terms of total lipids), and used as administration samples. PBS was used for the adjustment of the PEGylated liposome concentration. The administration sample prepared from the aforementioned (1-2) was used as the α-GalCer liposome administration sample of the Example (αGal lipo), and the administration sample prepared from the aforementioned (1-11) was used as the control liposome administration sample (Ctrl lipo). In addition, a free GalCer sample (Free αGal) in which free α-GalCer not formulated into a liposome was suspended in PBS, and PBS, were each used as administration samples.
As breast cancer cells, triple-negative breast cancer 4T1 cells were used. 4T1 cells (5.0×10^5 to 1.0×10^6 cells/mouse) were subcutaneously inoculated into the vicinity of the second teat from the top of the left chest of a BALB/c mouse (5 weeks old, female, n=2). When the average tumor volume reached 40 to 100 mm^3, the mice were randomly divided into groups. Then, the administration sample was subcutaneously injected into the left flank of the mouse (Day 0). […]

CCCCCCCCCCCCCCCCCCCCCCCCCC(=O)N[C@@H](CO[C@H]1O[C@H](CO)[C@H](O)[C@H](O)[C@H]1O)[C@H](O)[C@H](O)CCCCCCCCCCCCCC [α-GalCer, (2S,3S,4R)-1-O-(α-D-galactopyranosyl)-2-hexacosanoylamino-1,3,4-octadecanetriol]
increase in tumor volume: suppressed
